Patent US11077090B2, “Compounds and compositions and uses thereof” (Sunovion Pharmaceuticals Inc., priority 2016, dated 2021)

tested on: compound-treated mice; experiment: Neuropharmacological assay (SmartCube): behavioral activity signature and minimal effective dose; type: in vivo; settings: Mus musculus, ip, MED = dose having 50% or more total activity, read-out: Potency: minimal effective dose (MED), binned
How it was run: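 Video-recorded behavior is compared algorithmically against a reference-compound database, yielding class probabilities (best dose reported). Compounds given i.p. in NMP/PEG/propylene glycol 15 min pre-test at 3 doses; potency as MED, the dose (mpk, range usually 0.3–30) reaching ≥50% total activity.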

Row | Structure (SMILES) | minimal effective dose
1 | CC[C@@H]1OCc2ccc(F)cc2[C@@H]1N [Example 187] | < 3 mg/kg
2 | CC[C@H]1OCc2ccc(F)cc2[C@H]1N [Example 188] | < 3 mg/kg
3 | Cc1ccc2c(c1)CO[C@@H](C)[C@H]2N [Example 189] | 10 to 30 mg/kg
4 | Cc1ccc2c(c1)CO[C@H](C)[C@@H]2N [Example 190] | 3 to 10 mg/kg
5 | C[C@@H]1OCc2ccc(Cl)cc2[C@@H]1N.Cl [Example 194] | 3 to 10 mg/kg
6 | C[C@@H]1OCc2ccc3c(c2[C@@H]1N)CCCC3.Cl [Example 196] | 10 to 30 mg/kg
7 | C[C@H]1OCc2ccc3c(c2[C@@H]1N)CCCC3.Cl [Example 197] | 3 to 10 mg/kg
8 | Cc1ccc(Cl)c2c1[C@H](N)[C@@H](C)OC2.Cl [Example 200] | 3 to 10 mg/kg
9 | CC[C@@H]1OCc2ccc(F)cc2[C@@H]1N.Cl [Example 201] | 3 to 10 mg/kg
10 | CC[C@H]1OCc2ccc(F)cc2[C@@H]1N.Cl [Example 202] | < 3 mg/kg
11 | C[C@H]1OC[C@@H](N)c2cc(Cl)ccc21.Cl [Example 203] | 3 to 10 mg/kg

same assay, conditions: i.p. 15 min before test, most efficacious dose(s)

Row | Structure (SMILES) | AD: ADHD (probability of activity signature) | AG: analgesic (probability of activity signature) | AX: anxiolytic (probability of activity signature) | CE: cognitive enhancer (probability of activity signature) | DP: anti-depressant (probability of activity signature) | MS: mood stabilizer (probability of activity signature) | PS: anti-psychotic (probability of activity signature) | SD: sedative hypnotic (probability of activity signature) | UN: uncharacterized CNS activity (probability of activity signature)
12 | CC[C@@H]1OCc2ccc(F)cc2[C@@H]1N [Example 187] | + (LOQ ≤ + <5%) | ++ (5% ≤ ++ <25%) | ++ (5% ≤ ++ <25%) | ++ (5% ≤ ++ <25%) | + (LOQ ≤ + <5%) | + (LOQ ≤ + <5%) | +++ (25% ≤ +++ <50%) | + (LOQ ≤ + <5%) | ++++ (50% ≤ ++++)
13 | CC[C@H]1OCc2ccc(F)cc2[C@H]1N [Example 188] | + (LOQ ≤ + <5%) | ++ (5% ≤ ++ <25%) | ++ (5% ≤ ++ <25%) | + (LOQ ≤ + <5%) | ++ (5% ≤ ++ <25%) | + (LOQ ≤ + <5%) | ++ (5% ≤ ++ <25%) | + (LOQ ≤ + <5%) | ++++ (50% ≤ ++++)
14 | Cc1ccc2c(c1)CO[C@@H](C)[C@H]2N [Example 189] | + (LOQ ≤ + <5%) | ++ (5% ≤ ++ <25%) | ++ (5% ≤ ++ <25%) | ++ (5% ≤ ++ <25%) | ++ (5% ≤ ++ <25%) | + (LOQ ≤ + <5%) | ++ (5% ≤ ++ <25%) | + (LOQ ≤ + <5%) | +++ (25% ≤ +++ <50%)
15 | Cc1ccc2c(c1)CO[C@H](C)[C@@H]2N [Example 190] | + (LOQ ≤ + <5%) | + (LOQ ≤ + <5%) | ++ (5% ≤ ++ <25%) | ++ (5% ≤ ++ <25%) | + (LOQ ≤ + <5%) | + (LOQ ≤ + <5%) | ++ (5% ≤ ++ <25%) | ++ (5% ≤ ++ <25%) | ++++ (50% ≤ ++++)
16 | C[C@@H]1OCc2ccc(Cl)cc2[C@@H]1N.Cl [Example 194] | + (LOQ ≤ + <5%) | ++ (5% ≤ ++ <25%) | ++ (5% ≤ ++ <25%) | ++ (5% ≤ ++ <25%) | ++ (5% ≤ ++ <25%) | + (LOQ ≤ + <5%) | ++ (5% ≤ ++ <25%) | + (LOQ ≤ + <5%) | ++++ (50% ≤ ++++)
17 | C[C@@H]1OCc2ccc3c(c2[C@@H]1N)CCCC3.Cl [Example 196] | + (LOQ ≤ + <5%) | + (LOQ ≤ + <5%) | ++ (5% ≤ ++ <25%) | ++ (5% ≤ ++ <25%) | + (LOQ ≤ + <5%) | + (LOQ ≤ + <5%) | ++ (5% ≤ ++ <25%) | + (LOQ ≤ + <5%) | +++ (25% ≤ +++ <50%)
18 | C[C@H]1OCc2ccc3c(c2[C@@H]1N)CCCC3.Cl [Example 197] | + (LOQ ≤ + <5%) | + (LOQ ≤ + <5%) | ++ (5% ≤ ++ <25%) | + (LOQ ≤ + <5%) | + (LOQ ≤ + <5%) | + (LOQ ≤ + <5%) | + (LOQ ≤ + <5%) | + (LOQ ≤ + <5%) | ++++ (50% ≤ ++++)
19 | Cc1ccc(Cl)c2c1[C@H](N)[C@@H](C)OC2.Cl [Example 200] | + (LOQ ≤ + <5%) | ++ (5% ≤ ++ <25%) | +++ (25% ≤ +++ <50%) | ++ (5% ≤ ++ <25%) | ++ (5% ≤ ++ <25%) | + (LOQ ≤ + <5%) | ++ (5% ≤ ++ <25%) | + (LOQ ≤ + <5%) | ++++ (50% ≤ ++++)
20 | CC[C@@H]1OCc2ccc(F)cc2[C@@H]1N.Cl [Example 201] | + (LOQ ≤ + <5%) | + (LOQ ≤ + <5%) | ++ (5% ≤ ++ <25%) | ++ (5% ≤ ++ <25%) | + (LOQ ≤ + <5%) | + (LOQ ≤ + <5%) | ++ (5% ≤ ++ <25%) | + (LOQ ≤ + <5%) | ++++ (50% ≤ ++++)
21 | CC[C@H]1OCc2ccc(F)cc2[C@@H]1N.Cl [Example 202] | + (LOQ ≤ + <5%) | ++ (5% ≤ ++ <25%) | +++ (25% ≤ +++ <50%) | ++ (5% ≤ ++ <25%) | ++ (5% ≤ ++ <25%) | + (LOQ ≤ + <5%) | ++ (5% ≤ ++ <25%) | + (LOQ ≤ + <5%) | ++++ (50% ≤ ++++)
22 | C[C@H]1OC[C@@H](N)c2cc(Cl)ccc21.Cl [Example 203] | + (LOQ ≤ + <5%) | ++ (5% ≤ ++ <25%) | ++ (5% ≤ ++ <25%) | ++ (5% ≤ ++ <25%) | ++ (5% ≤ ++ <25%) | + (LOQ ≤ + <5%) | +++ (25% ≤ +++ <50%) | ++ (5% ≤ ++ <25%) | ++++ (50% ≤ ++++)
